Assay results published in article PMC4471590 (Chemistry (Weinheim an Der Bergstrasse, Germany), 2015).

Target: LytA239–252 (Streptococcus pneumoniae, UniProt P06653)
Assay: near-UV CD titration, ellipticity at […] nm
Assay type: binding

C[N+](C)(C)CCO [choline]
Kd: 80 ± 10 mM
